This test deals with miR-192 and miR-194 in WT TP53 MM cell lines. In words: qRT-PCR of miRNAs after demethylation agent. Particulars: 10 μM, 3 days, vs DMSO. Format: cell-based, human.

Each structure is given as a SMILES string.

The values below come from patent US20130150430A1, “Methods for Impairing the P53/HDM2 Auto-Regulatory Loop in Multiple Myeloma Development Using mIR-192, mIR-194 and mIR-215” (THE OHIO STATE UNIVERSITY, priority 2011, published 2013).

For `Nc1ncn([C@@H]2O[C@H](CO)[C@@H](O)[C@H]2O)c(=O)n1` [Azacytidine], the “expression of miR-194-2-192 cluster miRNAs” value was “increased”.
